In paper PMC8042770, “Odorant Receptors for Detecting Flowering Plant Cues Are Functionally Conserved across Moths and Butterflies” (Molecular Biology and Evolution, 2020):

Key:
[1] = tested on: H. armigera third instar larvae; experiment: Petri dish choice assay, third instar larvae; assay type: in vivo, Helicoverpa armigera
Method: Our results provide strong evidence that PAA, via its detection by HarmOR42, is an important host plant cue in both larval and adult stages of H. armigera.
For assessing larval behavior to PAA, the experiments were performed in closed plastic Petri dishes of 15 cm diameter (fig. 6D) as in [Poivet et al. (2013)] with some modifications. To ascertain the choice zone, we tracked the behavior trajectory of larvae to a regular diet. A piece of regular diet nutrition was placed at one of the opposite ends of the dish along the diameter. Ten third instar larvae were placed in the middle of the dish. The location of larvae was marked every 10 min for 1 h. Four replications were performed. Most of the larvae made choices within 40 min, so this time point was selected for choice statistics. For the choice behavior test, PAA and paraffin oil (solvent) were respectively added onto a piece of 1 × 1 cm filter paper and the papers were arranged at opposite ends. The two-choice zones were delineated by 4-cm radius half circles centered at each of the filter papers. The choice indexes (CI) were calculated using the formula: CI = (P − C)/T, where P represents the number of larvae that entered the PAA choice zone, C represents the number of larvae that entered the solvent zone, and T represents the total number of larvae in the test (ten larvae). We first determined the efficient test dose using three different dilutions of PAA (0.1, 1, and 10 μg) against wild-type larvae. The CI of larvae to PAA was compared with a blank (solvent on each side of the dish). […] Therefore, we used 1 μg of PAA to test the choice behavior of mutant larvae. Ten replicates were performed for each test.

[2] = tested on: H. armigera moth antennae; experiment: Electroantennography (EAG), wild-type vs HarmOR42 knock-out moths; assay type: in vivo, Helicoverpa armigera; conditions: single odorants, 1 μg
Source text: We next conducted a loss-of-function study by generating a HarmOR42-lacking H. armigera strain by CRISPR/Cas9 targeting the first coding exon. Homozygous mutants were obtained with a large segment deletion of 203 bp and a 6-bp nonhomologous insertion in the genome (fig. 6B), introducing a premature stop codon in the coding sequence. […] The most likely hypothesis is that HarmOR42 is not the major receptor for sensing this compound in H. armigera. As a control, we tested the response of male moths to the sex pheromone component Z11-16: Ald that is not a ligand of HarmOR42. As expected, we observed no difference between the EAG responses of mutant and wild-type moths to this compound.
The antennae of 2- to 3-day-old virgin male and female moths were cut at the base of the flagellum. After removing the tip, one antenna was inserted between two glass electrodes filled with 0.1 M KCl solution. In each test, a 10-μl solution of each odorant was added onto a piece of filter paper (0.5 cm × 0.5 cm) and then inserted into a Pasteur pipette. About 100 ng/μl stock solutions of individual odorants and different doses of the mixture IAC were prepared with paraffin oil. A continuous airflow of 30 ml/s was produced by a stimulus controller (CS-55, Syntech, Kirchzarten, Germany). Odor stimulation was controlled by a puff of purified air (0.2 s at 10 ml/s airflow) from the CS-55. EAG signals were amplified with a 10× AC/DC headstage preamplifier (Syntech) and further acquired with an Intelligent Data Acquisition Controller (IDAC-4-USB, Syntech) ([Cao et al. 2016]). The signals were recorded, monitored, and analyzed using Syntech EAG-software (Syntech, Germany). The EAG response values for each compound were calculated by subtracting the value of the same antennae corresponding to a solvent blank of paraffin oil.

HarmOR repertoire = experiment: Responses of the 28 functional HarmORs across odorant doses (PCA of oocyte currents); assay type: cell-based, Helicoverpa armigera; conditions: odorant 10^−7 M
Source text: Vectors quantifying the responses of the 28 ORs to each odorant were projected onto a 3D landscape. This 3D representation captured 78.34% (10^−4 M), 65.11% (10^−5 M), 68.89% (10^−6 M), and 84.52% (10^−7 M) of the variation in the original 28D data set across different odorant concentrations. […] In addition, the capacity of the H. armigera odor space was highly dependent on odorant concentration. As the concentrations of odorants decreased, their positions in the odor space converged, with the ability to discriminate different odorants diminishing.
(§1) Functional characterization of individual ORs was performed by heterologous expression in Xenopus oocytes combined with a two-electrode voltage-clamp system ([Wang et al. 2010]). Briefly, the full-length gene of each OR and Orco were subcloned into the eukaryotic expression vector pT7TS. cRNAs were generated from linearized expression vectors using the mMESSAGE mMACHINE T7 kit (Ambion, Austin, TX). Then, the cRNA mixture of ORx and Orco (27.6 ng each) was injected (Nanoliter 2010, WPI Inc., Sarasota, FL) into oocytes (stage V–VII). The respective Orcos of different species were used for functional studies of OR42 orthologs except for the four butterfly species (V. tameamea, P. xuthus, D. plexippus, and P. rapae), in which we used the Orco from P. xuthus. After incubation in nutrient solution at 18 °C for 3–5 days, the response profile of each oocyte to multiple plant odorants was recorded via a two-electrode voltage clamp (OC-725C oocyte clamp, Warner Instruments, Hamden, CT) at a holding potential of −80 mV. Data were acquired by using a Digidata 1440 A and were analyzed by pCLAMP 10.2 software (Axon Instruments Inc., Union City, CA).
Stock solutions of each odorant were prepared at 1 M using DMSO as a solvent, and each odorant was diluted in 1× Ringer’s solution to the indicated concentrations for electrophysiological recording. For functional screening of each HarmOR, a panel of 67 odorants belonging to three types of chemical classes: terpenes, aromatics, and aliphatics (short-chain fatty acid) were used (supplementary table S1, Supplementary Material online). For functional studies of OR42 orthologs from different species, six odorants including PAA, benzaldehyde, (E)-2-hexen-1-al, cinnamaldehyde, 2-phenylethanol, and heptanal were used.
Graphs and data statistics of OR response spectra, dose responses, EAG, and behavioral experiments were generated by Prism 7 (GraphPad Software, La Jolla, CA). A heat map was generated in Excel 2010 (Microsoft Corporation, WA). […] For tuning breadth analysis, the kurtosis values (K) were calculated by SPSS 22 (SPSS Inc., Chicago, IL) and were used to define the tuning spectra width, where smaller K values represent broader tuning spectra (fig. 1B). […]

RnubOR13 = experiment: Xenopus oocyte voltage clamp of RnubOR13; assay type: cell-based, Rhyacophila nubila; conditions: test panel
Source text: We also examined the response profile of EsemOR19 from E. semipurpurella, an OR that falls close to the HarmOR42-defined clade but that is not considered as a HarmOR42 ortholog. […] We also characterized the function of RnubOR13 from R. nubila (Trichoptera), a species from a sister order of Lepidoptera. […] Unfortunately, the putative E. semipurpurella OR that would consist of EsemOR34 + 35 and that falls at the base of the HarmOR42 clade could not be tested as it is incomplete.
as §1, with “Then, the cRNA mixture of ORx and Orco (27.6 ng each) was injected (Nanoliter 2010, WPI Inc., Sarasota, FL) into oocytes (stage V–VII). The respective Orcos of different species were used for functional studies of OR42 orthologs except for the four butterfly species (V. tameamea, P. xuthus, D. plexippus, and P. rapae), in which we used the Orco from P. xuthus.” left out, “CA). […]” for “CA).”

Structure (SMILES): O=CCc1ccccc1 [Phenylacetaldehyde]
- preference of HarmOR42 knock-out mutant larvae ([1]; third instar, knock-out, 1 μg): lost their preference
- attractive effect on wild-type larvae ([1]; third instar, wild type, 1 μg, 40 min): significantly attracted
- dose giving the most positive choice ([1]; wild-type larvae, 0.1, 1 and 10 μg tested): 1 µg
- EAG response of HarmOR42 knock-out mutants compared with wild-type moths [2]: significantly decreased
- response of the HarmOR repertoire (HarmOR repertoire): still responded
- response of RnubOR13 (RnubOR13): activated neither
